Source: patent US4563452A, “Derivatives of oxazinobenzothiazine-6,6-dioxide” (Provesan S.A., priority 1982, dated 1986)
Where two headings read alike, the source gives them in different places.

How the values were obtained:
[1] = tested on: oedema produced by carrageenin; assay: Anti-inflammatory activity (inhibition of oedema produced by carrageenin), method of Winter; type: in vivo, Male rats of the Sprague-Dawley HC/CEY strain; conditions: Rattus norvegicus, oral, 1 hour before carrageenin, ED-50 = dose which reduces the oedema volume by 25%
Procedure: ANTI-INFLAMMATORY ACTIVITY (INHIBITION OF OEDEMA PRODUCED BY CARRAGEENIN)
Method developed by Winter (Winter, C. A., Risley, E. A. and Nuss, G. W. Proc. Soc. Exp. Biol. Med., […] (1962)).
Male rats of the Sprague-Dawley HC/CEY strain are used, weighing from 90 to 110 g. The products are administered suspended in 5% gum arabic, by an oral method using an oesophageal probe, 1 hour before a subplantar injection in the right foot of each animal of 0.1 ml of 1% carrageenin suspension in physiological serum (NaCl 0.9%). The control animals are given 5% gum arabic, the total volume which is used in every case amounting to 10 ml/kg.
The volume of each foot is measured immediately before the carrageenin injection (time 0), then three and five hours after this injection using a mercury plethysmograph.
The inflammation index is calculated for each animal after 3 hours (I3) and after 5 hours (I5) after the carrageenin injection by means of the following formulae: [formula] wherein: VO =volume of the foot at time zero (immediately before the administration of carrageenin)
V3 =volume of the foot 3 hours after the injection of carrageenin
V5 =volume of the foot 5 hours after the injection of carrageenin.
The average inflammation index is calculated for the control batch after 3 hours (It3) and after 5 hours (It5).
The percentage of inhibition of the oedema (anti-inflammatory activity) is calculated for each animal by means of the formulae: [formula] wherein: A3 =anti-inflammatory activity in percentage of inhibition of the oedema after 3 hours
A5 =anti-inflammatory activity in percentage of inhibition of the oedema after 5 hours.
The anti-inflammatory activity is proportional to the logarithm of the administered dose. The dose which reduces the volume of the odema by 25% is obtained from the curve of dose logarithm-% effect. This dose is adopted as ED-50, since the maximum effect which is achieved is the reduction of the oedema by 50%.

[2] = tested on: pain induced by acetyl choline; assay: Analgesic activity with respect to the pain induced by acetyl choline (contortions), method of Collier; type: in vivo, Male mice of the Swiss strain; conditions: Mus musculus, po, dose which reduces the number of contortions to half the initial value
Procedure: Analgesic activity with respect to the pain induced by acetyl choline
Method developed by Collier (Collier, H. O. W. Dinneen, L. C. Johnson, C. A. and Schneider, C.--Br. J. Pharmac. Chemother., 32, 295-310 (1968)).
Male mice of the Swiss strain are used, weighing from 20 to 25 g. The mice are put into individual cages. A volume of 0.2 ml/20 g of a solution of acetyl choline bromide of 0.32 mg/ml is administered intraperitoneally to each animal. Thus, the injected dose of acetyl choline bromide is 3.2 mg/kg. The number of contortions or stretches performed by each mouse is counted over a period of 5 minutes. After 5 minutes, the products are administered using 5% gum arabic as a vehicle. After 40 and 120 minutes of administration of the products, another injection of acetyl choline is given and the number of contortions which are observed over a period of 5 minutes is counted.
The percentage of inhibition of the number of contortions after 40 and 120 minutes is calculated for each animal using the following formulae: [formula] wherein: NO =number of contortions before the product is administered
N40 =number of contortions 40 minutes after administration of the product
N120 =number of contortions 120 minutes after administration of the product.
The percentage of inhibition of the contortions is directly proportional to the logarithm of the administered dose. The dose which reduces the number of contortions to half the initial value (ED-50) is obtained from the curve of dose logarithm-% effect.

[3] = target: T1, prostaglandin-synthetase (1.14.99.1) (Bos taurus, UniProt O62664); assay: Inhibition of the prostaglandin-synthetase of seminal vesicle of cattle, method of Yoshimoto; type: biochemical; conditions: in vitro; 37° C., 5 minutes contact of enzyme with product, then 10 minutes incubation with arachidonic acid; pH 8.0
T1 construct: Prostaglandin-Synthetase of Seminal Vesicle of Cattle; from tissue; host or cells: seminal vesicle of cattle
T1 sequence (O62664 25-600): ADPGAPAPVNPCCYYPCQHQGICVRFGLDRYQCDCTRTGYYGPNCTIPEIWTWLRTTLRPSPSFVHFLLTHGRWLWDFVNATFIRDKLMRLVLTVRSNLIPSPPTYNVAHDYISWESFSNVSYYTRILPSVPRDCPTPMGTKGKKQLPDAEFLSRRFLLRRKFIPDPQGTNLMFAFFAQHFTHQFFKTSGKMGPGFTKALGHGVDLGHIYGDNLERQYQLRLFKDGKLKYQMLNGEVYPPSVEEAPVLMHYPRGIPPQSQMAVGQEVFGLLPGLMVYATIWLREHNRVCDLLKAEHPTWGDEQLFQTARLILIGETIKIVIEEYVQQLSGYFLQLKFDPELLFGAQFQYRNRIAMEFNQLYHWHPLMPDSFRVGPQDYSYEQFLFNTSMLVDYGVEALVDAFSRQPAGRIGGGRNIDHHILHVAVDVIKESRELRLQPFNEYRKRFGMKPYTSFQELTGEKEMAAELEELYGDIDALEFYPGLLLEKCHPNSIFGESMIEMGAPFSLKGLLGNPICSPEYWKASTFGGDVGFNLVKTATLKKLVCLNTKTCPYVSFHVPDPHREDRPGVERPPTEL
Procedure: Inhibition of the Prostaglandin-Synthetase of Seminal Vesicle of Cattle
The activity of the prostaglandin-synthetase (1.14.99.1) is determined by measuring the increases in absorbance at 278 nm due to the formation of prostaglandin B from prostaglandin E in an alkaline medium.
The incubation temperature was 37±0.1° C. in every case.
0.5 ml of substrate solution (0.6 mg of arachidonic acid in 10 ml of buffer) and 0.5 ml of buffer are added to 1.5 ml of cofactor solution (0.55 mg of hydroquinone+0.5 mg of hemoglobin+7.7 mg of glutathione in 12 ml of 0.2M Tris-HCl buffer of pH 8.0), containing 10 mg of enzyme, and the mixture is incubated at 37° C. for 10 minutes. The enzymatic reaction is stopped by the addition of 1.5 ml of 0.2M citric acid and the pGE is extracted with 2×5 ml of ethyl acetate. The organic phase is evaporated under a stream of nitrogen at 40° C. and the residue is redissolved in 2 ml of methanol and 0.5 ml of 3M potassium hydroxide. Finally, the absorptions at 278 nm are measured with respect to a blank to which 0.5 ml of buffer are added instead of 0.5 ml of substrate solution.
The enzymatic activity is expressed as an increase in the optical density for 10 minutes of reaction.
The subsequent stages are identical to those which have already been described. […]

[4] = 3 hours after carrageenin injection, read-out: ED-50 3 hours
[5] = 5 hours after carrageenin injection, read-out: ED-50 5 hours
[6] = 40 min, 40 minutes after administration, read-out: ED-50 40 min.
[7] = 2 h, 120 minutes after administration, read-out: ED-50 120 min.

Row | Structure (SMILES) | ED50 [1, 4] [mg/kg] | ED50 [1, 5] [mg/kg] | ED50 [2, 6] [mg/kg] | ED50 [2, 7] [mg/kg] | IC50 [3] [µM]
1 | Cc1ccnc(-n2c(=O)oc3c(c2=O)N(C)S(=O)(=O)c2ccccc2-3)c1 [Example 6, 5-methyl-3-[2-(4-methylpyridyl)]-2H,5H-1,3-oxazino[5,6-c][1,2]benzothiazine-2,4-(3H)dione-6,6-dioxide] | > 40 | > 40 | > 160 | > 160 | 
2 | CN1c2c(oc(=O)n(-c3ccccn3)c2=O)-c2ccccc2S1(=O)=O [Example 2, 5-methyl-3-(2-pyridyl)-2H,5H-1,3-oxazino[5,6-c][1,2]benzothiazine-2,4-(3H)dione-6,6-dioxide] | 2.3 | 2.6 | 1.8 | 1.1 | 100
3 | CN1c2c(oc(=S)n(-c3ccccn3)c2=O)-c2ccccc2S1(=O)=O [Example 3, 5-methyl-3-(2-pyridyl)-2H,5H-1,3-oxazino[5,6-c][1,2]benzothiazine-2(3H)thione-4-one-6,6-dioxide] | > 40 | > 40 | 25 | 25 | 
4 | Cc1cc(-n2c(=O)oc3c(c2=O)N(C)S(=O)(=O)c2ccccc2-3)no1 [Example 4, 5-methyl-3-[3-(5-methylisoxazolyl)]-2H,5H-1,3-oxazino[5,6-c][1,2]benzothiazine-2,4-(3H)dione-6,6-dioxide] | 38 | 39 | 154 | 154 | 
5 | CN1c2c(oc(=O)n(-c3ncccn3)c2=O)-c2ccccc2S1(=O)=O [Example 5, 5-methyl-3-(2-pyrimidinyl)-2H,5H-1,3-oxazino[5,6-c][1,2]benzothiazine-2,4-(3H)dione-6,6-dioxide] | > 40 | > 40 | > 160 | > 160 | 
6 | Cc1cccc(-n2c(=O)oc3c(c2=O)N(C)S(=O)(=O)c2ccccc2-3)n1 [Example 7, 5-methyl-3-[2-(6-methylpyridyl)]-2H,5H-1,3-oxazino[5,6-c][1,2]benzothiazine-2,4-(3H)dione-6,6-dioxide] | 20 | 25 | 7.5 | 10 | 
7 | CCCCC1C(=O)N(c2ccccc2)N(c2ccccc2)C1=O [Phenylbutazone, reference compound] | 17 | 17 | 40 | 35 | 300
8 | CCN1c2c(oc(=O)n(-c3ccccn3)c2=O)-c2ccccc2S1(=O)=O [Example 1, 5-ethyl-3-(2-pyridyl)-2H,5H-1,3-oxazino[5,6-c][1,2]benzothiazine-2,4-(3H)dione-6,6-dioxide] | > 40 | > 40 | > 160 | > 160 | 
